# Test results from patent publication US20260240851A1, “Treatment of Parkinson's Disease in a Patient Using a Glucocerebrosidase Activator” (BIAL - R&D Investments, S.A., priority 2023, published 2026).
# System: GCase
# Assay: Phase 2 study: GCase activity in whole blood (dried blood spot, FIA-MS/MS)
# Format: in vivo, human
# Conditions: vs placebo
# Experimental: In addition, the PD biomarkers and GCase activity in whole blood samples are measured at baseline and week 78 (preferably baseline and weeks 4, 26, 52 and 78). This may include biomarkers of lysosomal activity (e.g., glucosylsphingosine (GluSph) and/or glucosylceramide (GluCer)). Methods of measuring lysosomal activity (e.g., GluSph and/or GluCer) are described above. A method of measuring GCase activity is described below. Magnetic resonance imagining (MRI) scans are performed at baseline and week 78 for a cohort of GBA-PD subjects.
# The preferred method of measuring GCase activity in whole blood is described below, and also in Totorelli, 2016, which is incorporated herein by reference:
# A 5-plex cocktail assay for GCase, acid a-glucosidase (GAA), galactocerebrosidase (GALC), a-galactosidase A (GLA), and a-L-iduronidase (IDUA) activity is prepared. Vials containing the substrate (S) and internal standards (IS) for GCase and GAA are reconstituted with methanol and transferred to the GALC S+IS vial followed by evaporation. The GLA S+IS vial is reconstituted with 1.8 mL of 96 g/L sodium taurocholate in water and then transferred to the dry GALC S+IS vial, which is then heated to 60° C. to dissolve all solids. […]
structure (smiles),measurement,value
"CCCCCO[C@H]1CC[C@H](NC(=O)c2cnn3c(C)cc(C)nc23)CC1 [Compound A, 5,7-dimethyl-N-((1S*,4S)-4-(pentyloxy)cyclohexyl)pyrazolo[1,5-a]pyrimidine-3-carboxamide]",Mean change in GCase activity in whole blood samples,higher
